The values below come from ChEMBL document CHEMBL3758137 (Eur J Med Chem, 2016).

Series [1] can be described thus: Antiproliferative activity against human EBC1 cells after 72 hrs by SRB assay. Particulars: EBC-1, 72 h. Background: In SRB staining, fixed cells bind dye roughly in proportion to their protein.
Series [2] in a line: Solubility of compound in TRIS buffer by nephelometric analysis in presence of 0.1% BSA. To be noted: TRIS buffer with 0.1% BSA. In kind it is physicochemical.
Series [3] is described as follows: Apparent permeability from apical to basolateral side in human Caco2 cells after 35 to 95 mins by LC-MS/MS analysis. Format: ADME, cell-based. To be noted: Caco-2. On the technique in general: Caco-2 monolayers are a common model of the intestinal barrier.
Series [4] is described as follows: Intrinsic clearance in mouse liver microsomes at 0.1 uM after 7 to 60 mins by LC-MS/MS analysis. In kind it is ADME. In general terms: Liver microsomes are vesicles of endoplasmic reticulum, rich in cytochrome P450 enzymes.
For series [5], the system named is Liver microsome. The experiment in a line: Intrinsic clearance in rat liver microsomes at 0.1 uM after 7 to 60 mins by LC-MS/MS analysis. Format: ADME.
Series [6] in a line: Solubility of compound in HBSS/HEPES buffer at pH 7.4 by nephelometric analysis in presence of 0.1% BSA. In kind it is physicochemical. Particulars: HBSS/HEPES buffer with 0.1% BSA.
A short description of series [7]: Apparent permeability from basolateral to apical side in human Caco2 cells after 35 to 95 mins by LC-MS/MS analysis. To be noted: Caco-2. In kind it is ADME, cell-based.
In series [8] the test system is Liver microsome. The experiment in a line: Intrinsic clearance in human liver microsomes at 0.1 uM after 7 to 60 mins by LC-MS/MS analysis. Format: ADME.
Series [9] in a line: Solubility of compound in HBSS/HEPES buffer at pH 6.8 by nephelometric analysis in presence of 0.1% BSA. Format: physicochemical. To be noted: HBSS/HEPES buffer with 0.1% BSA.
For series [10], the target named is Hepatocyte growth factor receptor (Homo sapiens, UniProt P08581). The experiment in a line: Inhibition of recombinant c-Met (unknown origin) using poly (Glu,Tyr)4:1 as substrate after 60 mins by ELISA.
The nature of series [11]: Antitumor activity against human EBC1 cells xenografted in nude mouse assessed as tumor growth inhibition at 50 mg/kg, po qd administered for 21 days relative to control. In kind it is functional. To be noted: EBC-1, po, 504 h, read-out: TGI.

Structures are written as SMILES.

Sequence of Hepatocyte growth factor receptor (P08581 whole entry): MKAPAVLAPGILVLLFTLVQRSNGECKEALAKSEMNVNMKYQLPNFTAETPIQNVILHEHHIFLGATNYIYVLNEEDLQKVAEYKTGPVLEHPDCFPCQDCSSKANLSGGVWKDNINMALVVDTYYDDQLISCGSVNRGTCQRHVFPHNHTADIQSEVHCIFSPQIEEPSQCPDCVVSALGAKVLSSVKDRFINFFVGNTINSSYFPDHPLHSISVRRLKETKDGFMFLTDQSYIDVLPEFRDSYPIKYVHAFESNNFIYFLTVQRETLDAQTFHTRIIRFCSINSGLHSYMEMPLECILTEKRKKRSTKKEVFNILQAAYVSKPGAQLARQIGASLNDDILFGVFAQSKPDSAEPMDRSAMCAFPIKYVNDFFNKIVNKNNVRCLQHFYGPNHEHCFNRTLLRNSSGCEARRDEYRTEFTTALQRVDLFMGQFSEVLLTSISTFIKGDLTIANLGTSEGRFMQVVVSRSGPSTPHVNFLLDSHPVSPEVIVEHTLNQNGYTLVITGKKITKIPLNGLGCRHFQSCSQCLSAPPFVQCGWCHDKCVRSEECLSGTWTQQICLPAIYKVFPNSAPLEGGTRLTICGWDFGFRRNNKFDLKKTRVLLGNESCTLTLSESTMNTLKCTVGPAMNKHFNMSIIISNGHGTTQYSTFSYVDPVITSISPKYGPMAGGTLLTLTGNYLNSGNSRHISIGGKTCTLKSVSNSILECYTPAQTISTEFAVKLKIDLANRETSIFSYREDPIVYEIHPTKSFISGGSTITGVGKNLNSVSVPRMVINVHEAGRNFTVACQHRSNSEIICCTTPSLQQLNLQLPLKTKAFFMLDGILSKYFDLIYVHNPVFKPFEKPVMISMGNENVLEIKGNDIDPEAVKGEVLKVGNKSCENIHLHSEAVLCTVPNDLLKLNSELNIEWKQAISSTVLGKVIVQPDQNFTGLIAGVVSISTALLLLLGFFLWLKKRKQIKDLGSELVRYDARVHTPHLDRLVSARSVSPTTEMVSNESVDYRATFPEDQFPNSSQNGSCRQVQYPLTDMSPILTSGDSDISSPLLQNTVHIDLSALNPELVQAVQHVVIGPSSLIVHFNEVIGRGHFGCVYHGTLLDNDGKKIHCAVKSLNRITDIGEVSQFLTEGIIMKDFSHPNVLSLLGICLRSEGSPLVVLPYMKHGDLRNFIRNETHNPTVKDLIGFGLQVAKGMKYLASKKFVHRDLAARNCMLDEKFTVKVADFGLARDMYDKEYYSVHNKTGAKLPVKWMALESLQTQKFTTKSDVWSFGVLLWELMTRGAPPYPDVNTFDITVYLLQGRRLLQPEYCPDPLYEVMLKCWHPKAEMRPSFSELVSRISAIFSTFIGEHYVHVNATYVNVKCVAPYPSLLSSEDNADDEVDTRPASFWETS

`CN(C)C(=O)c1ccc(-c2ccc(=O)n(Cc3cccc(Nc4ncc(-c5cnn(C)c5)cn4)c3)n2)cc1F` returned an IC50 in series [1] of 102 nM.

In series [1], `Cn1cc(-c2cnc(Nc3cccc(Cn4nc(-c5ccc(Cl)c(C(F)(F)F)c5)ccc4=O)c3)nc2)cn1` had an IC50 of 65 nM.

As for `CNC(=O)c1ccc(-c2ccc(=O)n(Cc3cccc(Nc4ncc(-c5cnn(C)c5)cn4)c3)n2)cc1F`, the solubility (kinetic) in series [2], in series [6] and in series [9] was 2 µM each time. Further, the Papp A→B in [3] came out at 1.7 ×10⁻⁶ cm/s. For the same molecule, the CLH in [4] is 50 mL/min/g; in the series on Liver microsome [5] it was 64 mL/min/g; in the series on Liver microsome [8], 28 mL/min/g. Also, inhibition in series [1] was half-maximal at 31.3 nM (IC50). Also, the Papp B→A in series [7] amounted to 17.4 ×10⁻⁶ cm/s.

Consider `Cn1cc(-c2cnc(Nc3cccc(Cn4nc(-c5cccc(C(=O)O)c5)ccc4=O)c3)nc2)cn1`, for which the IC50 in series [1] is > 200 nM.

In the case of `Cn1cc(-c2cnc(Nc3cccc(Cn4nc(-c5ccncc5)ccc4=O)c3)nc2)cn1`, in series [1], the IC50 was > 200 nM.

As to `Cn1cc(-c2ccc(=O)n(Cc3cccc(Nc4nc5ccccc5[nH]4)c3)n2)cn1`, the IC50 in [1] is > 200 nM; in series [10], > 100 nM.

`Cn1cc(-c2cnc(Nc3cccc(Cn4nc(-c5cccnc5)ccc4=O)c3)nc2)cn1`: the IC50 in series [1] is > 200 nM.

For `Cn1cc(-c2ccc(=O)n(Cc3cccc(Nc4ncc(-c5cccnc5)cn4)c3)n2)cn1`, the IC50 in [1] is > 200 nM.

For the molecule `Cn1cc(-c2ccc(=O)n(Cc3cccc(Nc4ncccn4)c3)n2)cn1`, the IC50 in [1] is > 200 nM; in series [10], > 100 nM.

As for `CN1CCC(n2cc(-c3cnc(Nc4cccc(Cn5nc(-c6cnn(C)c6)ccc5=O)c4)nc3)cn2)CC1`, in series [1], the IC50 turned out to be 65 nM.

`CN1CCN(Cc2cnc(Nc3cccc(Cn4nc(-c5cnn(C)c5)ccc4=O)c3)nc2)CC1`: the 50% inhibitory concentration (IC50) is > 200 nM in series [1] and > 100 nM in series [10].

`C[C@@H](Oc1cc(-c2cnn(C3CCNCC3)c2)cnc1N)c1c(Cl)ccc(F)c1Cl` [CRIZOTINIB] gave an IC50 in series [1] of 19 nM. Besides, in series [11], the inhibition in vivo at 50 mg/kg was 108%.

Take `Cn1cc(-c2cnc(Nc3cccc(Cn4nc(-c5cnn(CCO)c5)ccc4=O)c3)nc2)cn1`: the IC50 in series [1] worked out at 99.8 nM.

For `Cn1cc(-c2cnc(Nc3cccc(Cn4nc(-c5ccc(C(=O)O)c(F)c5)ccc4=O)c3)nc2)cn1`, the IC50 in [1] was > 200 nM.

For `Cn1cc(-c2ccc(=O)n(Cc3cccc(Nc4ncn(C)n4)c3)n2)cn1`, the IC50 in series [1] is > 200 nM; in series [10], > 100 nM.

Consider `COCCOc1cnc(Nc2cccc(Cn3nc(-c4cnn(C)c4)ccc3=O)c2)nc1`, for which the IC50 in series [1] is > 200 nM.

Take `Cn1cc(-c2cnc(Nc3cccc(Cn4nc(-c5cccc(S(C)(=O)=O)c5)ccc4=O)c3)nc2)cn1`: the IC50 in [1] is > 200 nM.

On to `Cn1cc(-c2ccc(Nc3cccc(Cn4nc(-c5cnn(C)c5)ccc4=O)c3)nc2)cn1`, for which the IC50 in series [1] is > 200 nM; in [10], > 100 nM.

As for `Cn1cc(-c2cnc(Nc3cccc(Cn4nc(-c5ccc(S(C)(=O)=O)cc5)ccc4=O)c3)nc2)cn1`, half-maximal inhibition in series [1] (IC50) was put at 73.4 nM.

On to `Cn1cc(-c2ccc(=O)n(Cc3cccc(Nc4ncc(-c5cncs5)cn4)c3)n2)cn1`, for which the IC50 in series [1] was > 200 nM.

`CC(C)n1cc(-c2cnc(Nc3cccc(Cn4nc(-c5cnn(C)c5)ccc4=O)c3)nc2)cn1`: the IC50 in series [1] is 94.6 nM.

As for `Cn1cc(-c2ccnc(Nc3cccc(Cn4nc(-c5cnn(C)c5)ccc4=O)c3)n2)cn1`, the IC50 in series [1] is > 200 nM; in series [10], > 100 nM.

Consider `Cn1cc(-c2ccc(=O)n(Cc3cccc(Nc4ncc(-c5cnn(CCO)c5)cn4)c3)n2)cn1`, for which inhibition in series [1] was half-maximal at 48.7 nM (IC50).

`Cn1cc(-c2cnc(Nc3cccc(Cn4nc(-c5cccc(C#N)c5)ccc4=O)c3)nc2)cn1` returned an IC50 in series [1] of 108 nM.

A word on the IC50: it is the point on the concentration scale where inhibition reaches its midpoint. For orientation: solubility (kinetic) means solubility judged after dilution from a stock solution rather than from solid. A word on the Papp A→B: it is how fast a substance crosses the layer from the apical side. As usually defined, the Papp B→A is how fast a substance crosses the layer from the basolateral side.
